# Laboratory results as given in US10538512B2, “Aminoacylindazole immunomodulators for treatment of autoimmune diseases” (The Rockefeller University, priority 2016, dated 2020).
# Target: T1, Human FXIIa (Homo sapiens, UniProt P00748)
# T1 construct: active coagulation factor XII (FXIIa); purchased Enzyme Research Labs
# T1 sequence (P00748 373-615 limits assumed): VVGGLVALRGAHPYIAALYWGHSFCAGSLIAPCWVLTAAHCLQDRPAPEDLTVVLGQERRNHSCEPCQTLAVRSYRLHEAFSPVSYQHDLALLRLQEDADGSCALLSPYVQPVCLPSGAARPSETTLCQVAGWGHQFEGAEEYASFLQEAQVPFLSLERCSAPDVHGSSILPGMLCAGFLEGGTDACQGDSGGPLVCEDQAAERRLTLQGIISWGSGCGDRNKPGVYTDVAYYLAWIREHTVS
# T1 sequence (P00748 20-372 partner limits assumed): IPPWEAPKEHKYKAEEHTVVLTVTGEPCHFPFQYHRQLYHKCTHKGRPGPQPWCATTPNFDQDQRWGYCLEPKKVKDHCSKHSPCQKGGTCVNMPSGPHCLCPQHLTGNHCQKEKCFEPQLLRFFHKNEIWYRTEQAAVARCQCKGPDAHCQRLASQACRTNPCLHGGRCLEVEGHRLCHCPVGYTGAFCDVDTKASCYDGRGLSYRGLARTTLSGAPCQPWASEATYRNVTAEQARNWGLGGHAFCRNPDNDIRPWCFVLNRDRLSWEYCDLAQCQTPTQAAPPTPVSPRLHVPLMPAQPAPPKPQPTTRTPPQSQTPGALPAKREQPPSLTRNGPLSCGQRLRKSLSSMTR
# Assay: Factor XIIa (FXIIa) inhibitory activity, chromogenic substrate assay
# Format: biochemical
# Conditions: Human FXIIa 12.5 nM, Pefachrome XIIa 400 μM, 10 min preincubation
# Description: Factor XIIa (FXIIa) Inhibitory Activity:
# In a 96-well clear bottom plate, 80 μl of assay buffer was added to each well. Assay buffer consists of 0.5× Hank's Balanced Salt Solution (Invitrogen), buffered with 25 mM HEPES pH 7.4 (Invitrogen) and 0.5× Tris-buffered saline with Tween-20 0.05% (Santa Cruz Biotechnology). Test compounds were first dissolved in DMSO (Sigma) and then 4 μl were added to test wells containing assay buffer. Serial dilutions using an automated multi-channel pipette were used to generate a concentration range of approximately 1-100 μM. […] 80 μl of this enzyme solution was added to the assay wells. The enzyme/compound mixtures were incubated for 10 minutes at room temperature. Chromogenic substrate (Pefachrome XIIa; Enzyme Research Labs) was added to assay wells at a final concentration of 400 μM. The assay plate was spun for 1 minute at 1500 g and then read at 37° C. in a SpectraMax M2 plate reader (λ=405 nm). Activity was quantified as the rate of change in absorbance, which corresponds to the rate of substrate cleavage.
row,Structure (SMILES),IC50
1,"Nc1nn(C(=O)C2CCNc3ccc(F)cc32)c2c1CC(F)CC2 (single isomer, unassigned) [Example 139, ((5R*)-3-amino-5-fluoro-4,5,6,7-tetrahydroindazol-1-yl)((4RS)-6-fluoro-1,2,3,4-tetrahydroquinolin-4-yl)methanone]",85 µM
2,"Cc1cccc2c1NCC[C@@H]2C(=O)n1nc2c(c1N)CC[C@@H](O)C2 (single isomer, unassigned) [Example 199, ((6R*)-3-amino-6-hydroxy-4,5,6,7-tetrahydroindazol-2-yl)((4S*)-8-methyl-1,2,3,4-tetrahydroquinolin-4-yl)methanone]",0.04 µM
3,"Cc1cccc2c1NCCC2C(=O)n1nc2c(c1N)C=CCC2 (single isomer, unassigned) [Example 195, (S*)-(3-amino-6,7-dihydroindazol-2-yl)(8-methyl-1,2,3,4-tetrahydroquinolin-4-yl)methanone]",0.04 µM
4,"Nc1nn(C(=O)C2CCNc3ccc(F)cc32)c2c1CC(F)CC2 (single isomer, unassigned) [Example 142, ((5S*)-3-amino-5-fluoro-4,5,6,7-tetrahydroindazol-1-yl)((4R/S)-6-fluoro-1,2,3,4-tetrahydroquinolin-4-yl)methanone]",65 µM
5,"Nc1c2c(nn1C(=O)C1CCCc3[nH]c(Br)cc31)CCCC2 (single isomer, unassigned) [Example 108, (S*)-(3-amino-4,5,6,7-tetrahydroindazol-2-yl)(2-bromo-4,5,6,7-tetrahydro-1H-indol-4-yl)methanone]",0.07 µM
6,"CCc1cc2c([nH]1)CCCC2C(=O)n1nc2c(c1N)CCCC2 (stereo not shown) [Example 82, (3-amino-4,5,6,7-tetrahydroindazol-2-yl)(2-ethyl-4,5,6,7-tetrahydro-1H-indol-4-yl)methanone]",0.04 µM
7,"Nc1nn(C(=O)[C@@H]2CCNc3ccc(Cl)cc32)c2c1C[C@H](O)CC2 (single isomer, unassigned) [Example 149, ((5R*)-3-amino-5-hydroxy-4,5,6,7-tetrahydroindazol-1-yl)((4R*)-6-chloro-1,2,3,4-tetrahydroquinolin-4-yl)methanone]",> 40 µM
8,"COc1ccc2c(c1)NCCC2C(=O)n1nc(N)c2c1CCCC2 (stereo not shown) [Example 111, (3-amino-4,5,6,7-tetrahydroindazol-1-yl)(7-methoxy-1,2,3,4-tetrahydroquinolin-4-yl)methanone]",> 100 µM
9,"COC1CCc2nn(C(=O)c3cccc4[nH]c(C)cc34)c(N)c2C1 (stereo not shown) [Example 119, (3-amino-5-methoxy-4,5,6,7-tetrahydro-2H-indazol-2-yl)(2-methyl-1H-indol-4-yl)methanone]",0.05 µM
10,"Cc1cccc2c1NCC[C@@H]2C(=O)n1nc(N)c2c1C[C@H](O)CC2 (single isomer, unassigned) [Example 201, ((6R*)-3-amino-6-hydroxy-4,5,6,7-tetrahydroindazol-1-yl)((4S*)-8-methyl-1,2,3,4-tetrahydroquinolin-4-yl)methanone]",> 150 µM
11,"Cc1cccc2c1NCCC2C(=O)n1nc(N)c2c1CCC=C2 (stereo not shown) [Example 196, (3-amino-6,7-dihydroindazol-1-yl)(8-methyl-1,2,3,4-tetrahydroquinolin-4-yl)methanone]",7.5 µM
12,"Nc1c2c(nn1C(=O)[C@H]1CCNc3c(Cl)cccc31)CC[C@H](N)C2 (relative stereo) [Example 215, ((4S*)-8-chloro-1,2,3,4-tetrahydroquinolin-4-yl)((5S*)-3,5-diamino-4,5,6,7-tetrahydroindazol-2-yl)methanone]",0.07 µM
13,"Nc1nn(C(=O)C2CCNc3ccc(F)cc32)c2c1CC(F)(F)CC2 (stereo not shown) [Example 175, (3-amino-5,5-difluoro-4,5,6,7-tetrahydroindazol-1-yl)(6-fluoro-1,2,3,4-tetrahydroquinolin-4-yl)methanone]",16 µM
14,"Cc1cc2c(C(=O)n3nc4c(c3N)CCCC4)cccc2n1C(C)C [Example 49, (3-amino-4,5,6,7-tetrahydroindazol-2-yl)(1-isopropyl-2-methyl-1H-indol-4-yl)methanone]",0.02 µM
15,"Cc1cc2c(C(=O)n3nc(N)c4c3CCC(OCc3ccccc3)C4)cccc2[nH]1 (stereo not shown) [Example 118, (3-amino-5-(benzyloxy)-4,5,6,7-tetrahydroindazol-1-yl)(2-methyl-1H-indol-4-yl)methanone]",20 µM
16,"Nc1nn(C(=O)[C@H]2CCNc3ccc(Cl)cc32)c2c1C[C@H](O)CC2 (single isomer, unassigned) [Example 150, ((5R*)-3-amino-5-hydroxy-4,5,6,7-tetrahydroindazol-1-yl)((4S*)-6-chloro-1,2,3,4-tetrahydroquinolin-4-yl)methanone]",23 µM
17,"Nc1c2c(nn1C(=O)C1CCCc3[nH]c(Cl)cc31)CCCC2 (single isomer, unassigned) [Example 106, (S*)-(3-amino-4,5,6,7-tetrahydro-2H-indazol-2-yl)(2-chloro-4,5,6,7-tetrahydro-1H-indol-4-yl)methanone]",0.04 µM
18,"Cn1ccc2c1CCCC2C(=O)n1nc2c(c1N)CCCC2 (single isomer, unassigned) [Example 97, (S*)-(3-amino-4,5,6,7-tetrahydroindazol-2-yl)(1-methyl-4,5,6,7-tetrahydro-1H-indol-4-yl)methanone]",0.4 µM
19,"Cc1ccc2c(c1)NCCC2C(=O)n1nc2c(c1N)CCCC2 (stereo not shown) [Example 101, (3-amino-4,5,6,7-tetrahydroindazol-2-yl)(7-methyl-1,2,3,4-tetrahydroquinolin-4-yl)methanone]",0.9 µM

# Further lines, results first:
row,IC50,Structure (SMILES)
1,24 µM,"Nc1nn(C(=O)[C@H]2CCNc3ccc(F)cc32)c2c1C[C@@H](O)CC2 (single isomer, unassigned) [Example 135, ((5S*)-3-amino-5-hydroxy-4,5,6,7-tetrahydro-1H-indazol-1-yl)((4S*)-6-fluoro-1,2,3,4-tetrahydroquinolin-4-yl)methanone]"
2,> 100 µM,"CO[C@H]1CCc2nn(C(=O)[C@@H]3CCNc4ccc(F)cc43)c(N)c2C1 (single isomer, unassigned) [Example 176, ((5S*)-3-amino-5-methoxy-4,5,6,7-tetrahydroindazol-2-yl)((4R*)-6-fluoro-1,2,3,4-tetrahydroquinolin-4-yl)methanone]"
3,4 µM,"Nc1c2c(nn1C(=O)[C@@H]1CCNc3ccc(F)cc31)CC[C@H](N)C2 (stereo in doubt) [Example 193, ((5S*)-3,5-diamino-4,5,6,7-tetrahydroindazol-2-yl)((4R*)-6-fluoro-1,2,3,4-tetrahydroquinolin-4-yl)methanone]"
4,9 µM,"Nc1c2c(nn1C(=O)[C@@H]1CCNc3ccc(Cl)cc31)CC[C@H](O)C2 (single isomer, unassigned) [Example 144, ((5S*)-3-amino-5-hydroxy-4,5,6,7-tetrahydroindazol-2-yl)((4R*)-6-chloro-1,2,3,4-tetrahydroquinolin-4-yl)methanone]"
5,2.5 µM,"Nc1c2c(nn1C(=O)C1CCNc3ccc(F)cc31)CCC(NC(=O)OCc1ccccc1)C2 (single isomer, unassigned) [Example 186, benzyl (5R*)-3-amino-2-(6-fluoro-1,2,3,4-tetrahydroquinoline-4-carbonyl)-4,5,6,7-tetrahydro-2H-indazol-5-ylcarbamate]"
6,> 100 µM,"Nc1c2c(nn1C(=O)[C@@H]1CCNc3ccc(F)cc31)C[C@H](O)CC2 (single isomer, unassigned) [Example 184, ((6R*)-3-amino-6-hydroxy-4,5,6,7-tetrahydroindazol-2-yl)((4R*)-6-fluoro-1,2,3,4-tetrahydroquinolin-4-yl)methanone]"
7,> 80 µM,"Nc1c2c(nn1C(=O)[C@@H]1CCNc3ccc(F)cc31)CC[C@@H](N)C2 (stereo in doubt) [Example 188, ((5R*)-3,5-diamino-4,5,6,7-tetrahydroindazol-2-yl)((4R*)-6-fluoro-1,2,3,4-tetrahydroquinolin-4-yl)methanone]"
8,> 100 µM,"Nc1c2c(nn1C(=O)[C@@H]1CCNc3ccc(F)cc31)C[C@@H](O)CC2 (single isomer, unassigned) [Example 182, ((6S*)-3-amino-6-hydroxy-4,5,6,7-tetrahydroindazol-2-yl)((4R*)-6-fluoro-1,2,3,4-tetrahydroquinolin-4-yl)methanone]"
9,33 µM,"Nc1c2c(nn1C(=O)[C@@H]1CCNc3ccc(Cl)cc31)CC[C@@H](O)C2 (single isomer, unassigned) [Example 147, ((5R*)-3-amino-5-hydroxy-4,5,6,7-tetrahydroindazol-2-yl)((4R*)-6-chloro-1,2,3,4-tetrahydroquinolin-4-yl)methanone]"
